Data taken from PubChem BioAssay (NCI).
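The compound was tested at five concentrations on cells cultured in 96-well plates, with a 48-hour exposure period. The concentration for 50% growth inhibition is given as GI50. TGI: concentration producing complete growth inhibition.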

How the values were obtained:
Experiment in all cases: NCI anticancer screen, dose series, 48 h
NCI-H23 lung = test system: NCI-H23 lung
NCI-H460 lung = test system: NCI-H460 lung
NCI-H522 lung = test system: NCI-H522 lung
NCI/ADR-RES ovarian = test system: NCI/ADR-RES ovarian
OVCAR-3 ovarian = test system: OVCAR-3 ovarian
OVCAR-4 ovarian = test system: OVCAR-4 ovarian
OVCAR-5 ovarian = test system: OVCAR-5 ovarian
OVCAR-8 ovarian = test system: OVCAR-8 ovarian
PC-3 prostate = test system: PC-3 prostate
RPMI-8226 leukemia = test system: RPMI-8226 leukemia
RXF 393 renal = test system: RXF 393 renal
SF-268 CNS = test system: SF-268 CNS
SF-295 CNS = test system: SF-295 CNS
SF-539 CNS = test system: SF-539 CNS
SK-MEL-2 melanoma = test system: SK-MEL-2 melanoma
SK-MEL-28 melanoma = test system: SK-MEL-28 melanoma
SK-MEL-5 melanoma = test system: SK-MEL-5 melanoma
SK-OV-3 ovarian = test system: SK-OV-3 ovarian
SN12C renal = test system: SN12C renal
SNB-19 CNS = test system: SNB-19 CNS
SNB-75 CNS = test system: SNB-75 CNS
SR leukemia = test system: SR leukemia
SW-620 colon = test system: SW-620 colon
T-47D breast = test system: T-47D breast
TK-10 renal = test system: TK-10 renal
U251 CNS = test system: U251 CNS
UACC-257 melanoma = test system: UACC-257 melanoma
UACC-62 melanoma = test system: UACC-62 melanoma
UO-31 renal = test system: UO-31 renal

In the case of `O=C1/C(=C/c2ccc(Cl)cc2)COc2ccc(O)cc21`, the GI50 (NCI-H23 lung) is reported as 2.21 µM, the TGI (NCI-H23 lung) is reported as 5.16 µM and the GI50 (NCI-H460 lung) is reported as 3.32 µM. For the same molecule, the TGI (NCI-H460 lung) was 11.2 µM, the GI50 (NCI-H522 lung) was 1.72 µM and the TGI (NCI-H522 lung) was 3.5 µM. The GI50 (NCI/ADR-RES ovarian) was 2.99 µM, the TGI (NCI/ADR-RES ovarian) was 9.13 µM and the GI50 (OVCAR-3 ovarian) was 1.84 µM. For the same molecule, the TGI (OVCAR-3 ovarian) was 3.55 µM, the GI50 (OVCAR-4 ovarian) was 3.83 µM and the TGI (OVCAR-4 ovarian) was 16.3 µM. The GI50 (OVCAR-5 ovarian) was 2.44 µM, the TGI (OVCAR-5 ovarian) was 6.81 µM and the GI50 (OVCAR-8 ovarian) was 3 µM. The TGI (OVCAR-8 ovarian) was 11 µM, the GI50 (PC-3 prostate) was 2.15 µM and the TGI (PC-3 prostate) was 5.14 µM. It also gave a GI50 (RPMI-8226 leukemia) of 0.302 µM, a TGI (RPMI-8226 leukemia) of 0.905 µM and a GI50 (RXF 393 renal) of 1.83 µM. It also gave a TGI (RXF 393 renal) of 3.45 µM, a GI50 (SF-268 CNS) of 3.29 µM and a TGI (SF-268 CNS) of 16.7 µM. It also gave a GI50 (SF-295 CNS) of 14.5 µM, a TGI (SF-295 CNS) of 30 µM and a GI50 (SF-539 CNS) of 1.8 µM. It also gave a TGI (SF-539 CNS) of 3.56 µM, a GI50 (SK-MEL-2 melanoma) of 12.3 µM and a TGI (SK-MEL-2 melanoma) of 28.5 µM. The GI50 (SK-MEL-28 melanoma) was 2.07 µM, the TGI (SK-MEL-28 melanoma) was 4.33 µM and the GI50 (SK-MEL-5 melanoma) was 2.32 µM. For the same molecule, the TGI (SK-MEL-5 melanoma) was 5.37 µM, the GI50 (SK-OV-3 ovarian) was 14 µM and the TGI (SK-OV-3 ovarian) was 44.5 µM. It also gave a GI50 (SN12C renal) of 1.86 µM, a TGI (SN12C renal) of 4.22 µM and a GI50 (SNB-19 CNS) of 2.16 µM. For the same molecule, the TGI (SNB-19 CNS) was 5.18 µM, the GI50 (SNB-75 CNS) was 12.5 µM and the TGI (SNB-75 CNS) was 26.3 µM. For the same molecule, the GI50 (SR leukemia) was 0.663 µM, the TGI (SR leukemia) was 5.3 µM and the GI50 (SW-620 colon) was 1.87 µM. It also gave a TGI (SW-620 colon) of 4.26 µM, a GI50 (T-47D breast) of 2.22 µM and a TGI (T-47D breast) of 5.59 µM. The GI50 (TK-10 renal) was 3.33 µM, the TGI (TK-10 renal) was 13.4 µM and the GI50 (U251 CNS) was 1.52 µM. It also gave a TGI (U251 CNS) of 2.84 µM, a GI50 (UACC-257 melanoma) of 3.16 µM and a TGI (UACC-257 melanoma) of 13 µM. The GI50 (UACC-62 melanoma) was 2.23 µM, the TGI (UACC-62 melanoma) was 5.46 µM and the GI50 (UO-31 renal) was 1.61 µM. It also gave a TGI (UO-31 renal) of 3.99 µM.
